Here are results for 6 molecules from patent publication US12594343B2, “Treatment of cancer” (INNATE PHARMA, priority 2020, dated 2026).

Data set [1] relates to advanced or metastatic urothelial tract tumors. The conditions noted are these: cited from earlier work.
In data set [2] the test system is pancreatic cancer. The conditions noted are these: 349 patients; cited from earlier work.
The test system of data set [3] is UC. The conditions noted are these: cited from earlier work.
Data set [4] relates to SUM185 cells. Kind of data set: Fab-ZAP internalization assay (cell viability, CTG). The data set is classed as cell-based, human. The note with it: SUM185 (higher Nectin-4). How it is done: (§1) The ability of the anti-nectin-4 antibodies to induce nectin-4 internalization was assessed on SUM190 cell lines expressing lower levels of nectin-4 and in SUM185 cells expressing higher levels of Nectin-4. […] Internalization was indirectly determined by using the Fab-ZAP human Internalization Kit (Advanced Targeting Systems) to allow the anti-Nectin-4 antibodies to target and eliminate Nectin-4 expressing cells, with measurement of cell viability using the CTG substrate (CellTiter-Glo® Luminescent Cell Viability Assay (Promega). Fab-ZAP is a chemical conjugate of goat anti-human monovalent antibody and the ribosome-inactivating protein, saporin. The antibodies used are affinity-purified polyclonal antibodies against both the heavy and light chain of human IgG. This secondary conjugate is used to evaluate the potential of a primary antibody to internalize.
(§2) Briefly, a concentration range of the antibodies or the control items was incubated on top of the SUM190 or SUM185 cells. After the incubation, the non-bound antibodies were washed away and Fab-ZAP was added on top of the cells. The newly formed complexes (anti-nectin-4 antibody+Fab-ZAP) internalized into the cells where the Saporin was released and stopped the protein synthesis leading to cell death. The internalization capability of the antibody was indirectly determined by the cells viability: the more efficient was the cell killing; the better was the internalization capability of the antibody.

The subject of data set [5] is SUM190 cells. The data set is described as above. In kind it is cell-based, human. The note with it: SUM190 (lower Nectin-4). How it is done: as §1, §2
Data set [6] has as its target T1, wild-type human Nectin-4 protein (Homo sapiens, UniProt Q96NY8).
T1 construct: expressed in transfected cells
T1 sequence (Q96NY8 32-510): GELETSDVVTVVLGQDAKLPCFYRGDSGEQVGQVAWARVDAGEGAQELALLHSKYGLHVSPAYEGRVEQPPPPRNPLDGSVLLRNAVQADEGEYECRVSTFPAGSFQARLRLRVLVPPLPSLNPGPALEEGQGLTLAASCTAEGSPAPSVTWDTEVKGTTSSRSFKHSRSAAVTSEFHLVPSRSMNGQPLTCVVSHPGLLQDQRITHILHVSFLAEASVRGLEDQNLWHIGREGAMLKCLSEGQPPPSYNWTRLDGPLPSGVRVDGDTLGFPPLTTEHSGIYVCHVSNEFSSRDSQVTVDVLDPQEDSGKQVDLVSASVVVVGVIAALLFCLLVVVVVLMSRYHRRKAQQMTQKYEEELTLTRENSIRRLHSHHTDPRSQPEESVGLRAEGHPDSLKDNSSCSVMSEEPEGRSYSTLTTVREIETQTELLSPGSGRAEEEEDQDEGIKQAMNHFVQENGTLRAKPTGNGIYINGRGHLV
As to the kind of experiment: Flow cytometry binding to CHO cells expressing wild-type Nectin-4. How it is done: (§3) The characterization of the binding of the antibodies on Nectin-4 domains was performed by flow cytometry using cells made to express the wild-type human Nectin-4 protein and cells made to express a modified Nectin-4 having the Ig-like C2 type 1 and the Ig-like C2 type 2 domains and lacking the Ig-like V domain (the C1C2 construct). The latter protein additionally bears a V5 tag for flow cytometry cell sorting, and cells were used as Nectin4-C1C2-V5 sorted cells.
(§4) Wild-type Nectin-4 (the CI.3C8 cell line), a C2 construct (containing the Ig-like C2 type 2 domain and lacking both the V and the C1 domains) and the C1C2 construct allow the determination of whether test antibodies bind to the V or different C domains. Briefly, nucleic acid sequences encoding different human Nectin-4 domains were amplified by PCR. The PCR products were inserted into an expression vector at appropriate restriction sites. A leader peptide, and for C1C2 and C2 an N-terminal V5 tag having the amino acid sequence […] (SEQ ID NO: 13), were added, and expression at the surface of cells was confirmed by flow cytometry. The amino acid sequences of the resulting different human Nectin-4 domain fragment-containing proteins are shown below (V5 tag underlined). The vectors were then transfected into the CHO cell line to obtain stable clones expressing the different Nectin-4 domain proteins at the cell surface.
A general note: In flow cytometry, cells or beads pass a laser one at a time.

Data set [7] concerns the target T2, modified Nectin-4 lacking the Ig-like V domain (the C1C2 construct) (Homo sapiens, UniProt Q96NY8).
T2 construct: having the Ig-like C2 type 1 and the Ig-like C2 type 2 domains and lacking the Ig-like V domain (the C1C2 construct); expressed in transfected cells
T2 sequence (Q96NY8 148-510): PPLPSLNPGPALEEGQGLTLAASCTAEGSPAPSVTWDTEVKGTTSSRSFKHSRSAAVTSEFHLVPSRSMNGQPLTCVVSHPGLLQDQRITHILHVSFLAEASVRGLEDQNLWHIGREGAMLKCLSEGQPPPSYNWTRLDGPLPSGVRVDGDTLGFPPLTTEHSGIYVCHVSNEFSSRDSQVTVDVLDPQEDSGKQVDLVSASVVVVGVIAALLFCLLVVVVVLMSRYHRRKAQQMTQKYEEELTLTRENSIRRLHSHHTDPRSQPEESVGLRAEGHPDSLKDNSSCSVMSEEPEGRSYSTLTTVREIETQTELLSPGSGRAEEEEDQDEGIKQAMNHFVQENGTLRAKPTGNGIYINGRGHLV
The data set is classed as binding. The conditions noted are these: flow cytometry, CHO cells. As for the experimental part:
as §3, §4

The subject of data set [8] is modified Nectin-4 lacking the Ig-like V domain (the C1C2 construct). The data set is classed as binding, human. The conditions noted are these: concluded from wild-type versus C1C2 binding. How it is done: as §3, §4
For data set [9], the system named is SUM190 tumor cells. Kind of data set: ADC-induced tumor cell death, Cell Titer Glo viability at day 6. The data set is classed as cell-based, human. How it is done:
The resulting ADCs were tested for their ability to induce death of Nectin-4/Her2 expressing SUM190 and SUM185 tumor cells of Example 1. Briefly, cells were plated cells in 96 well plates (V=80 μl). N4 ADC1 and Her2 ADC1 or human IgG1-isotype control (IC)-linker-toxin or medium (conc. 5×) were tested in 1:2 serial dilution starting from (530 nM to 30 nM) and in a 1:5 serial dilution (7 nM to 7×10−2 nM) for the N4 ADC1 and isotype control. N4 ADC2 and isotype control were tested in 1:10 serial dilution starting from (530 nM to 5.3 10-2). The ADCs' ability to cause cell death was determined by assessing confluence using Incucyte S3-2 apparatus; viability at day 6 after treatment was determined using the Cell Titer Glo™ (CTG) assay with an Enspire2 apparatus. IC50 values for each ADC was determined using Luminescent Cell Viability at day 6 data with GraphPad Prism8. Experiments were repeated twice.
The anti-Nectin-4 camptothecin-analogue ADCs used were the N4 ADC1 as shown in Example 2. The anti-Her2 ADCs were also those used in Example 2 (Her2 ADC1). The ADC's ability to cause cell death was determined by assessing confluence and determining viability of SUM190 cells at day 6 as described in Example 2.
(In ATP-based viability assays light output follows the ATP content of the culture.)

On to `CC[C@@]1(O)C(=O)OCc2c1cc1n(c2=O)Cc2cc3c([N+](=O)[O-])cccc3nc2-1` [RFS2000], for which the “activity in patients failing prior chemotherapy” value in data set [1] is given as “did not exert significant activity”.

`CC[C@@]1(O)C(=O)OCc2c1cc1n(c2=O)Cc2c-1nc1cc(F)c(C)c3c1c2[C@@H](N)CC3` [exatecan]: in data set [2], the “efficacy of exatecan in addition to gemcitabine versus gemcitabine alone” value is listed as “not superior in efficacy to gemcitabine alone”.

Regarding enfortumab vedotin, in data set [3] (UC patients), the “CR (complete response rate)” value is given as 12%, the “ORR (objective response rate)” value was 44%, the “discontinuation due to progressive disease as assessed by RECIST” value is on record as 48% and the “discontinuation due to progressive disease by clinical symptoms” value is given as 5%. Besides, the “patients that discontinued experienced adverse events, notably neuropathy” value in data set [3] is 18%.

For “enfortumab: anti-Nectin-4 antibody, VH and VL of SEQ ID NOS: 3 and 4 as human IgG1 isotype”, the “ability to induce internalization” value in [4] and in data set [5] was “highly potent in the ability to induce of internalization” in each case. In addition, the “binding to whole Nectin-4 protein” value in [6] was “bound to the whole Nectin-4 protein”. For the same molecule, the “binding to C1C2 construct lacking the V domain” value in data set [7] is “lost binding”. Moreover, in data set [8], the Nectin-4 domain bound entry is reported as “within the V domain”.

B1: N4 ADC2: Anti-Nectin-4 antibody conjugated to a second camptothecin (SN-38) containing linker (conjugate)
VH: QVQLKQSGPGLVQPSQSLSITCTVSGFSLTNYGVHWVRQSPGKGLEWLGVIWSGGSTDYNAAFISRLSISKDTSKSQVFFKMNSLQADDTAIYYCARELIHAMDNWGQGTSVTVSS
VL: DIQMTQSPASLSVSVGETVTITCRASENIYSNLAWYQQKQGNSPQLLVFAATNLADGVPSRFSGSGSGTQYSLKINSLQSEDFGTYYCQHFWGTPTFGGGTKLEIK
On to B1, for which the “potency in causing tumor cell death (in words)” value in data set [9] was “good potency”.

B2: N41: anti-Nectin-4 antibody, VH and VL of SEQ ID NOS: 9 and 10 as human IgG1 isotype (antibody, listed as Mus musculus, V domains shown)
VH: QVQLKQSGPGLVQPSQSLSITCTVSGFSLTNYGVHWVRQSPGKGLEWLGVIWSGGSTDYNAAFISRLSISKDTSKSQVFFKMNSLQADDTAIYYCARELIHAMDNWGQGTSVTVSS
VL: DIQMTQSPASLSVSVGETVTITCRASENIYSNLAWYQQKQGNSPQLLVFAATNLADGVPSRFSGSGSGTQYSLKINSLQSEDFGTYYCQHFWGTPTFGGGTKLEIK
modifications: human IgG1 constant regions
Take B2: the “ability to induce internalization” value in data set [4] and in data set [5] was “highly potent in the ability to induce of internalization” each time. Moreover, in [6], the “binding to whole Nectin-4 protein” value is listed as “bound to the whole Nectin-4 protein”. Besides, in [7], the “binding to C1C2 construct lacking the V domain” value is given as “lost binding”. In addition, the Nectin-4 domain bound result in data set [8] is listed as “within the V domain”.
